Marks after values point to notes of the source that are not given here.
Tests used:
Format in all cases: in vivo
Rhizoctonia oryzae = experiment: Test I: turf brown patch, test suspension sprayed on creeping bent grass seedlings, disease rating; conditions: 200 ppm test suspension; for pest or weed control at 200 ppm: Waitea circinata, in Agrostis stolonifera, 120 h
Alternaria solani = experiment: Test G: tomato early blight, test suspension sprayed on seedlings, disease rating;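 note: 200 ppm unless marked * meaning 40 ppm or ** meaning 10 ppm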
Phytophthora infestans = experiment: whole plant or invertebrate
Septoria nodorum = experiment: Test D: wheat glume blotch, test suspension sprayed on wheat seedlings, disease rating; conditions: 200 ppm test suspension; for pest or weed control at 200 ppm: Parastagonospora nodorum, 216 h
[1] = test system: Colletotrichum orbiculare; experiment: Test F: cucumber Colletotrichum anthracnose, test suspension sprayed on cucumber seedlings, disease rating
[2] = test system: Erysiphe graminis f. sp. tritici; experiment: Test A: wheat powdery mildew, test suspension sprayed on wheat seedlings, disease rating; conditions: 200 ppm test suspension, 100 = 100% disease control, 0 = no control; for pest or weed control at 200 ppm: Blumeria graminis, 192 h
Septoria tritici = experiment: Test E: wheat leaf blotch, test suspension sprayed on wheat seedlings, disease rating;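 note: 200 ppm unless marked * meaning 40 ppm or ** meaning 10 ppm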
Pythium aphanidermatum = experiment: Test L: bluegrass pythium blight, test suspension sprayed on bluegrass seedlings, disease rating;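 note: 200 ppm unless marked * meaning 40 ppm or ** meaning 10 ppm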
Botrytis cinerea = experiment: Test H: tomato Botrytis, test suspension sprayed on tomato seedlings, disease rating; conditions: 200 ppm test suspension; for pest or weed control at 200 ppm: Botrytis cinerea, 120 h
[3] = test system: Puccinia recondite f sp. tritici; experiment: Test B: wheat leaf rust, test suspension sprayed on wheat seedlings, disease rating; conditions: for pest or weed control at 40 ppm: Puccinia, 192 h;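 for all read-outs here: 200 ppm unless marked * meaning 40 ppm or ** meaning 10 ppm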
Fusarium graminearum = experiment: whole plant or invertebrate; conditions: for pest or weed control at 40 ppm: Fusarium graminearum, in Triticum aestivum, 192 h, read-out: Test C disease control rating
Plasmopara viticola = experiment: Test K: grape downy mildew, grape seedlings inoculated and then sprayed, disease rating; conditions: 200 ppm test suspension
[4] = Phytophthora infestans, in Solanum lycopersicum, 120 h, read-out: Test J disease control rating

Row | Structure (SMILES) | Test I disease control rating (Rhizoctonia oryzae) | Test G disease control rating (Alternaria solani; 40 ppm test suspension (*)) | Test J disease control rating (Phytophthora infestans; 40 ppm test suspension (*)) | Test D disease control rating (Septoria nodorum) | Test F disease control rating ([1]; 200 ppm test suspension) | Test A disease control rating [2] | Test E disease control rating (Septoria tritici; 40 ppm test suspension (*)) | Test L disease control rating (Pythium aphanidermatum; 40 ppm test suspension (*)) | Test H disease control rating (Botrytis cinerea) | Test B disease control rating ([3]; 40 ppm test suspension (*)) | Test C disease control rating (Fusarium graminearum; 40 ppm test suspension (*)) | further results
1 | Fc1ccc(-c2nn3c(c2-c2ccnc(NOCC4CCC4)n2)CCCC3)cc1 [compound 75] | 0% | 0* % | 0* % | 0% | 0% | 31% | 92* % | 0* % | 0% | 0* % | 0* % | –
2 | CCCC(CO)Nc1nccc(-c2c(-c3ccc(F)cc3)nn3c2CCCC3)n1 (stereo not shown) [compound 73] | 0% | 0* % | 17* % | 78% | 0% | 0% | 84* % | 98* % | 0% | 85* % | 0* % | –
3 | CC(=O)N1CCCc2c(-c3ccnc(NC4CC4)n3)c(-c3ccc(F)cc3)nn21 [Compound 134, 1-[3-[2-(cyclopropylamino)-4-pyrimidinyl]-2-(4-fluorophenyl)-5,6-dihydropyrazolo[1,5-b]pyridazin-7(4H)-yl]ethanone] | – | – | – | – | – | – | – | – | – | – | – | pest or weed control at 200 ppm (Rhizoctonia oryzae): 24%; pest or weed control at 10 ppm (Alternaria solani; Alternaria solani, 168 h, 10 ppm test suspension (**)): 98%; pest or weed control at 10 ppm (Phytophthora infestans; [4]): 90%; pest or weed control at 200 ppm (Septoria nodorum): 96%; pest or weed control at 40 ppm ([1]; Colletotrichum orbiculare, 144 h, 40 ppm test suspension (*)): 99%; pest or weed control at 200 ppm [2]: 91%; pest or weed control at 10 ppm (Septoria tritici; Zymoseptoria tritici, 504 h, 10 ppm test suspension (**)): 77%; pest or weed control at 40 ppm (Pythium aphanidermatum; Pythium aphanidermatum, 120 h, 40 ppm test suspension (*)): 100%; pest or weed control at 200 ppm (Botrytis cinerea): 53%; pest or weed control at 40 ppm ([3]; 40 ppm test suspension (*)): 85%; pest or weed control at 40 ppm (Fusarium graminearum): 84%
4 | COCC(C)Nc1nccc(-c2c(-c3ccc(F)cc3F)nn3c2CCC3)n1 (stereo not shown) [compound 88] | 0% | – | – | 60% | 0% | 0% | – | – | 21% | – | – | Test K disease control rating (Plasmopara viticola): 0%; Test J disease control rating (Phytophthora infestans; 200 ppm test suspension): 100%; Test L disease control rating (Pythium aphanidermatum; 200 ppm test suspension): 99%; Test C disease control rating (Fusarium graminearum; 200 ppm test suspension): 100%
5 | COCC(C)Nc1nccc(-c2c(-c3ccc(C)cc3)nn3c2CCC3)n1 (stereo not shown) [compound 89] | 0% | – | – | 60% | 0% | 21% | – | – | 8% | – | – | Test K disease control rating (Plasmopara viticola): 0%; Test J disease control rating (Phytophthora infestans; 200 ppm test suspension): 0%; Test L disease control rating (Pythium aphanidermatum; 200 ppm test suspension): 99%; Test C disease control rating (Fusarium graminearum; 200 ppm test suspension): 100%
6 | CCC(C)Nc1nccc(-c2c(-c3ccc(F)cc3F)nn3c2CCC3)n1 (stereo not shown) [compound 87] | 0% | – | – | 78% | 0% | 0% | – | – | 0% | – | – | Test K disease control rating (Plasmopara viticola): 0%; Test J disease control rating (Phytophthora infestans; 200 ppm test suspension): 94%; Test L disease control rating (Pythium aphanidermatum; 200 ppm test suspension): 99%; Test C disease control rating (Fusarium graminearum; 200 ppm test suspension): 99%
7 | CC(C)C(CO)Nc1nccc(-c2c(-c3ccc(F)cc3)nn3c2CCCC3)n1 (stereo not shown) [compound 74] | 0% | 0* % | 0* % | 60% | 0% | 20% | 86* % | 93* % | 0% | 91* % | 10* % | –
8 | CC(CN(C)C)Nc1nccc(-c2c(-c3ccc(F)cc3)nn3c2CCCC3)n1 (stereo not shown) [compound 77] | 0% | 0* % | 40* % | 49% | 0% | 82% | 0* % | 0* % | 29% | – | 92* % | –
9 | Cc1ccc(CNc2nccc(-c3c(-c4ccc(F)cc4)nn4c3CCCC4)n2)o1 [compound 79] | 0% | 0* % | 0* % | 69% | 0% | 76% | 93* % | 0* % | 0% | – | 99* % | –
10 | CC(C)Nc1nccc(-c2c(-c3ccc(F)cc3)nn3c2CNCC3)n1.Cl [Compound 133] | 0% | 0* % | 73* % | 0% | 98% | 0% | 0* % | 99* % | 0% | 19* % | 42* % | –
11 | CC(CO)Nc1nccc(-c2c(-c3ccc(F)cc3)nn3c2CCCC3)n1 (stereo not shown) [Compound 5, 2-[[4-[2-(4-fluorophenyl)-4,5,6,7-tetrahydropyrazolo[5,1-a]pyridin-3-yl]-2-pyrimidinyl]amino]-1-propanol] | 0% | 98* % | – | 97% | 99% | 96% | – | – | 99% | – | – | Test J disease control rating (Phytophthora infestans; 200 ppm test suspension): 99%; Test E disease control rating (Septoria tritici; 200 ppm test suspension): 97%; Test L disease control rating (Pythium aphanidermatum; 200 ppm test suspension): 100%; Test B disease control rating ([3]; 200 ppm test suspension): 100%; Test C disease control rating (Fusarium graminearum; 200 ppm test suspension): 100%
12 | C=CCN1CNCc2c(-c3ccnc(NC4CC4)n3)c(-c3ccc(F)cc3)nn21 [Compound 137] | 0% | 99* % | 53* % | 92% | 0% | 86% | 73* % | 99* % | 0% | 0* % | 69* % | –
13 | CC(C)Nc1nccc(-c2c(-c3ccc(F)cc3)nn3c2CCCN3)n1 [Compound 136] | 0% | 99* % | 57* % | 97% | 0% | 0% | 28* % | 100* % | 41% | 92* % | 77* % | –
14 | CC(=O)N1CCn2nc(-c3ccc(F)cc3)c(-c3ccnc(NC(C)C)n3)c2C1 [Compound 130] | 0% | 58* % | 100* % | 97% | 0% | 86% | 97* % | 100* % | 34% | 92* % | 0* % | –
15 | CN1CCCc2c(-c3ccnc(NC4CC4)n3)c(-c3ccc(F)cc3)nn21 [Compound 135, N-cyclopropyl-4-[2-(4-fluorophenyl)-4,5,6,7-tetrahydro-7-methylpyrazolo[1,5-b]pyridazin-3-yl]-2-pyrimidinamine] | – | – | – | – | – | – | – | – | – | – | – | pest or weed control at 200 ppm (Rhizoctonia oryzae): 0%; pest or weed control at 40 ppm (Alternaria solani; Alternaria solani, 168 h, 40 ppm test suspension (*)): 99%; pest or weed control at 40 ppm (Phytophthora infestans; [4]): 70%; pest or weed control at 200 ppm (Septoria nodorum): 89%; pest or weed control at 200 ppm ([1]; Colletotrichum orbiculare, 144 h, 200 ppm test suspension): 99%; pest or weed control at 200 ppm [2]: 95%; pest or weed control at 40 ppm (Septoria tritici; Zymoseptoria tritici, 504 h, 40 ppm test suspension (*)): 90%; pest or weed control at 200 ppm (Botrytis cinerea): 70%; pest or weed control at 40 ppm ([3]; 40 ppm test suspension (*)): 61%; pest or weed control at 40 ppm (Fusarium graminearum): 84%
16 | CN(N)c1nccc(-c2c(-c3ccc(F)cc3)nn3c2CCCC3)n1 [compound 70] | 9% | 46* % | 53* % | 90% | 91% | 83% | 84* % | 98* % | 29% | 0* % | 0* % | –
17 | CC(CO)Nc1nccc(-c2c(-c3ccc(F)cc3)nn3c2CCCC3)n1.Cl (stereo not shown) [compound 72] | 0% | 98* % | 99* % | 82% | 0% | 0% | 47* % | 100* % | 77% | 94* % | 0* % | –
